SMILES strings stand for the structures. In brackets after ≈: the same amount, converted by molar mass. Like-named read-outs stand apart in the source and are kept apart here. Bounds are passed on as bounds.

Series [1] can be described thus: Metabolic stability in human liver microsomes (HLM Clint). The series is classed as in vitro ADME.
Series [2] concerns primary neonatal rat DRG neurons. In words: Rat DRG neuron firing, current-induced and capsaicin-induced (current clamp). The series is classed as cell-based. From the text: rDRGs isolation and primary cell culture: Briefly, rat DRGs from all spinal levels were carefully removed and collected in HBSS on ices, connective tissue of the epineurium surrounding the ganglion was removed and cells were dissociated using Collagenase-II and trypsin dissociation solutions. DRGs were dissociated further, passed through glass Pasteur pipettes to obtain single cells. Then dissociation solution was changed to 5% FBS containing DRG neuronal culture medium and plated onto ECL coated 12 mm cover glass.
Additional rDRGs experiments were performed using Lonza primary neonatal rat (Sprague Dawley neonatal; P2,3) DRG neurons (R-DRG-505, Lonza) plated and cultured according to the manufacturer.
These cryopreserved DRG cells were prepared from freshly isolated and dissociated spinal cord dorsal root ganglia and comprise a normal distribution of neurons and glia (schwann cells).
Electrophysiology: Cells were used for electrophysiological recording in the 48 hours following rDRG isolation. Round small neurons (20-40 m in diameter) were selected for electrophysiology recordings, to select for small nociceptive neurons that propagate pain sensation in vivo and that are expressing both Kv7.2/3 and TRPV1 targets. Membrane excitability was monitored using current clamp. Positive current steps of different amplitude were injected (400 ms) to induce spikes trains before and following compound application.
The inhibitory potency of the newly designed compounds was studied on neuronal excitability in an experimental system of high physiological relevance, primary neonatal rat DRG neurons (Sprague Dawley neonatal; P2,3; R-DRG-505, Lonza). These cryopreserved DRG cells are prepared from freshly isolated and dissociated spinal cord dorsal root ganglia and comprise a normal distribution of neurons and glia (schwann cells).
The inhibitory potency was tested both on current-induced and Capsaicin-induced neuronal activity.

In series [3] the target is T1, hTRPV1 (Homo sapiens (Human), UniProt Q8NER1). Description: High content screen (HCS) Fluo-8 No Wash calcium flux assay, capsaicin activation, CHO cells expressing hTRPV1. The series is classed as cell-based. To be noted: CHO cells expressing hTRPV1, fluorescent HCS; read-out: TRPV1 IC50.
The target in series [4] is T2, hERG (Homo sapiens (Human), UniProt Q12809). In words: in vitro. To be noted: hamster, CHO cells that express human hERG.
Series [5] can be described thus: LogD measurement at pH 7.4. The series is classed as physicochemical.
Series [6] can be described thus: Solubility assay (kinetic solubility). The series is classed as physicochemical. On the set-up: Kinetic Sol.: unit not given here.
The next series addresses human Kv7.2/3 channels (Homo sapiens (Human), UniProt O43525+O43526). Description: High content screen (HCS) FLIPR Potassium (thallium flux) assay, CHO/hKv7.2/3 cell line. The series is classed as cell-based. The settings on record: head prints IC50; channel activation in CHO/hKv7.2/3, fluorescent HCS; read-out: Kv7.2/7.3 IC50. Here is the method: Cell culture: […] To maintain the stability of human Kv7.2/7.3 expression antibiotic selection was added (Puromycin g/ml). High content screen (HCS) using FLIPR Potassium Assay Kit: FLIPR Potassium Assay Kit ([…] FLIPR Potassium Assay Explorer Kits, Molecular Devices) was used with the CHO/hKv7.2/3 cell line to screen molecules against the hKv7.2/7.3 ion channel target. The assay exploits the permeability of thallium ions (Tl+) through potassium (K^+) channels. In this assay, Tl+ indicator dye is used to produce a bright fluorescent signal upon the binding to Tl+ conducted through the potassium channels. The intensity of the Tl+ signal is proportional to the number of potassium channels in the open state. Therefore, it provides a functional indication of the potassium channel activity. To activate the voltage-gate potassium channels, the cells were stimulated with a mixture of K+ and Tl+ to depolarize the cell membrane. The fluorescence increase in the assay represents the influx of Tl+ into the cell specifically through the potassium channel, providing a functional read-out of hKv7.2/3 activity using a fluorescent plate reader coupled with injectors used to activate the channels. […] Tecan Spark reader plate injectors were primed with Tl+ (1 mM Tl2SO4) or Tl++K+ (1 mM Tl2SO4; 5 mM K2SO4) for channel activation and data correction. […]

The target in series [7] is T2, hERG. In words: cell-based.
Series [8] addresses T1, hTRPV1. Description: TRPV1 electrophysiology in CHO cells co-expressing hKv7.2/3 and hTRPV1. The series is classed as cell-based. The settings on record: also when co-applied with retigabine. From the text:
To exemplify the functional coupling of Kv7.2/3 and TRPV1, stably expressing Kv7.2/3 cells were transfected with human TRPV1 and their response to current ramp to −40 mV (Kv activation) and capsaicin (TRPV1 activation) was examined electrophysiologically.

Series [9] has as its target T2, hERG. In words: hERG FLIPR Potassium assay, CHO/hERG cell line. The settings on record: at the concentration given as hERG IC50 bound.
In another series the test system is human sensory neurons. In words: Spontaneous activity of human sensory neurons differentiated from hNPCs. The series is classed as cell-based. The settings on record: 5 μM, reversible. Here is the method:
Cell culture and differentiation: Human PSC-derived neural progenitor cells (Stem Cell Catalog No. 70901 and 70902) were cultured and expanded on Matrigel coated 6-wells plates, using neuronal progenitor medium containing: Neurobasal media supplemented by non-essential amino-acids, 1%; Glutamax, 1%; B27, 2%, FGF2, 20 ng/ml). hNPC were then plated onto PDL and Matrigel coated 12 mm coverglass at a density of about 50,000 cells/well of a 6 well, in DMEM/F12; 10% KSR; 1% P/S and A83-01 (2 M) from days 0-5. From days 0-9 the medium contained also CHIR99021 (6 μM). From Day 3-9 the medium included R04929097 (2 μM) and SU5402 (3 μM). From day 9 and onwards, the media change (Neurobasal Media contains: NT-3; BDNF; NGF; GDNF) was performed every other day by replacing only 50% of the media after CO2 equilibrating. […]
Electrophysiology: To characterize the neuronal properties with electrophysiology recordings, round small neurons (20-40 μm in diameter) were selected from day 31 and onwards. Cells were monitored for their polarized negative membrane potential and for their ability to evoke consistent spikes train responses to repeated positive current injections as a mark of achieving electrical maturation before testing the effect of the tested compounds on neuronal excitability. Membrane excitability was monitored using current clamp. […]

Series [10] concerns NGF-treated rat DRG neurons. Description: Neuropathic model in rat DRGs (NGF pretreatment, capsaicin induced tetanic burst). The series is classed as cell-based. The settings on record: NGF 100 ng/ml pretreatment, compound at 100 nM. Here is the method:
FIG. 8B presents representative data obtained in assays in which neurons were pretreated with NGF 100 ng/ml for 4-5 days. NGF Non-treated rat DRGs were stimulated by repeated capsaicin application with and without 421-6 at 2 μM (top panel) or 100 nM (Middle panel).
DRGs treated with NGF show tetanic action potential burst in response to CAP application, mimicking neuropathic like response. See, Background Art FIG. 8A. NGF enhances TRPV1 function using Calcium-dependent fluorescence, F, relative to maximal fluorescence, Fmax, as a function of time from a single HEK293 cell stably transfected with TrkA and transiently transfected with hTRPV1. Pulses of capsaicin (100 nM, applied as shown at top) elicited submaximal increases in [Ca]i. Exposure to NGF (100 ng/ml, see top) enhanced the capsaicin induced calcium increase. Arrows show responses used for calculation of sensitization ratio.

Another series concerns Kv7.3/5, Kv7.4. The settings on record: positive control, Kv7.3/5, Kv7.4 assay; read-out: Known IC50; cited from earlier work.

T2 sequence (Q12809 whole entry): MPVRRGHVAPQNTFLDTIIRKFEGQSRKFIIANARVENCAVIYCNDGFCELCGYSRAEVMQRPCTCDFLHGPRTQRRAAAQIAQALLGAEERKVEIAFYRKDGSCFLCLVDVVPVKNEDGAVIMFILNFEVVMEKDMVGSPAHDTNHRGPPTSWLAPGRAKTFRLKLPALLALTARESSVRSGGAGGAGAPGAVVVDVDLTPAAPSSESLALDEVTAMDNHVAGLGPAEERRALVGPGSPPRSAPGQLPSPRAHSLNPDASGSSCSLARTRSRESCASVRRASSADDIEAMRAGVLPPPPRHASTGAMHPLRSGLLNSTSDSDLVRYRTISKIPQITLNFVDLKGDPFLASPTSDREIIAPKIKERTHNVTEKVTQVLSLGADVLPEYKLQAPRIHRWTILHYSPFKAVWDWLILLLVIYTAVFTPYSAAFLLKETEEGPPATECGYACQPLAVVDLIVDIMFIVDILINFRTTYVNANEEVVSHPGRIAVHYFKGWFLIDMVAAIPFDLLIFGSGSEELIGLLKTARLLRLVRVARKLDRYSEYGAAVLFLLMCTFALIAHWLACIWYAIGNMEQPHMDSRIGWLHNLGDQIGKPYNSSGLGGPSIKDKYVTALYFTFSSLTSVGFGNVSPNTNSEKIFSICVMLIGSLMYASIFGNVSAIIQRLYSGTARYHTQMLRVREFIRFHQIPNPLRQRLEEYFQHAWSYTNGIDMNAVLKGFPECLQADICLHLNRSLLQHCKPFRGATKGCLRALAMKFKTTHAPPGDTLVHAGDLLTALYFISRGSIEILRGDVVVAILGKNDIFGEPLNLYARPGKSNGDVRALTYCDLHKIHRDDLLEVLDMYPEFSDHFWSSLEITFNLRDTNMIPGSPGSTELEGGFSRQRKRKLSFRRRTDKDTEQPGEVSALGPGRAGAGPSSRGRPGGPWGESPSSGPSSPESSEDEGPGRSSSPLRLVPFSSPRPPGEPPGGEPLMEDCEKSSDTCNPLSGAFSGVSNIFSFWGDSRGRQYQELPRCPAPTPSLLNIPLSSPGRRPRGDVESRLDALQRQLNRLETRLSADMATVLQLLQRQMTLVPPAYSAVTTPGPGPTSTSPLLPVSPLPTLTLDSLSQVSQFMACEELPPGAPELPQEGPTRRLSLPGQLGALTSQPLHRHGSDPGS
T1 sequence (Q8NER1 whole entry): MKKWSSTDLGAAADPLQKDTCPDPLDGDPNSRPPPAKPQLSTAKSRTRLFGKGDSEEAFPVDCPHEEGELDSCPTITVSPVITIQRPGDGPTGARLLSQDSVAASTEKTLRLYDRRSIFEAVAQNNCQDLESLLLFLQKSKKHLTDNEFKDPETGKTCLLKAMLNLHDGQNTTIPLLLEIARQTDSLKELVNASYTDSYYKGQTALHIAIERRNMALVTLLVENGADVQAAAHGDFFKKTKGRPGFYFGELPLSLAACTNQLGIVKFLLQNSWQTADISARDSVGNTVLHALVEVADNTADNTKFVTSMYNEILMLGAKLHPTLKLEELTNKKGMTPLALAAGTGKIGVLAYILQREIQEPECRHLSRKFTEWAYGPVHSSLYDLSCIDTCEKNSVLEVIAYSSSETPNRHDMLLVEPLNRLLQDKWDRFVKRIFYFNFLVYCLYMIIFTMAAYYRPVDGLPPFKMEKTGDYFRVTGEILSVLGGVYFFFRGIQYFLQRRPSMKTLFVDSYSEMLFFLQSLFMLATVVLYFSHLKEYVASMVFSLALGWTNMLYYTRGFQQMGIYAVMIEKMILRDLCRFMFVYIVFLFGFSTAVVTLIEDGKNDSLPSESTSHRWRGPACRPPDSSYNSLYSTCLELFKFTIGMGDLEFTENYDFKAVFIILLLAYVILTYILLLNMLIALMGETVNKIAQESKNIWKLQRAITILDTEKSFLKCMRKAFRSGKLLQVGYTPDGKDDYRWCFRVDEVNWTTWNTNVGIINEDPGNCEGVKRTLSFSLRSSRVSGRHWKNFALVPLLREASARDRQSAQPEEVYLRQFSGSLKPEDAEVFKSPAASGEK

As to `CC(C)c1cc(Cl)cc(Cl)c1C(O)c1ccc(F)c(CC(=O)NCC2(O)CCC2)c1` (racemic) [Compound 533], in [1], the microsomal CLint came to 658 µL/min/mg. Moreover, in series [2] (100 nM), the “capsaicin-evoked rat DRGs spiking” value is given as “inhibition is gained”. Moreover, in [2] (100 nM), the “current-evoked rat DRGs spiking” value is reported as “inhibition decreases”. Also, the IC50 on hTRPV1 [3] is 21.2 µM; at human Kv7.2/3 channels, 1.5 µM; at hERG [7], above 50 µM. On hERG [4], this compound returned an inhibition at 1.5 h, 50 µM of 0%. For the same compound, the LogD in series [5] (lipid phase / aqueous phase, read-out: LogD) is 4.36. Besides, the solubility kinetic at 10 min in series [6] (HHBS buffer with 0.2% DMSO, aqueous with cosolvent or surfactant or cyclodextrin, kinetic from dmso stock, read-out: Kinetic Sol.) came to 41 µM (≈ 18.6 µg/mL).

Take `CC(C)(C)c1ccc(/C=C/C(=O)Nc2ccc3c(c2)OCCO3)cc1` [AMG9810, reference compound]: in [2] (50 nM), the “reduction of Capsaicin evoked firing” value was “about 50%”. Moreover, the “TRPV1-inhibition potency gain in cells co-expressing hKv7.2/3 and hTRPV1” value on hTRPV1 [8] is on record as “failure to gain TRPV1-inhibition potency”.

On to `COC[C@@H](CO)NC(=O)Cc1cc(Sc2c(Cl)cc(Cl)cc2C(C)C)ccc1F` [Compound 414], for which, in series [1], the “HLM Clint” value stood at 686 µL/min/mg. In addition, the “hERG, percent in parentheses beside the IC50 bound” value on hERG [9] is recorded as “(0%)”.

For `COC[C@@H](CO)NC(=O)Cc1cc(Sc2c(Cl)cc(F)cc2C(C)C)ccc1F` [Compound 415], the “HLM Clint” value in series [1] is 839 µL/min/mg. Besides, the “hERG, percent in parentheses beside the IC50 bound” value at hERG [9] is “(0%)”. The compound also displayed a LogD in series [5] of 4.25. In addition, the “Kinetic Sol.” value in series [6] is listed as 26.7. Besides, the spontaneous neuronal activity entry with human sensory neurons is on record as “significantly reduced”.

As for `CC(C)c1cc(Cl)cc(Cl)c1C(=O)c1ccc(F)c(CC(=O)NCC(C)(C)O)c1` [Compound 417-4], in series [1], the “HLM Clint” value was found to be 91.84 µL/min/mg. At hERG [9], the “hERG, percent in parentheses beside the IC50 bound” value is reported as “(0%)”. In [5], this compound had a LogD of 4.08. Besides, the “Kinetic Sol.” value in series [6] stood at 66.

`CC(C)c1cc(Cl)cc(Cl)c1C(O)c1ccc(F)c(CC(=O)NCC(C)(C)O)c1` (stereo not drawn) [Compound 417]: the “HLM Clint” value in series [1] worked out at 89.1 µL/min/mg. In addition, the “hERG, percent in parentheses beside the IC50 bound” value on hERG [9] is reported as “(0%)”.

On to `Cc1cn(-c2ccc(F)c(CC(=O)NCC(C)(C)O)c2)c2c(Cl)cc(Cl)cc12` [Compound 421-6], for which the “inhibition of current induced AP activity” value in [2] (100 nM) is 10.1±3.4%. For the same compound, in series [2] (500 nM), the “inhibition of current induced AP responses” value is listed as 51.2±8.4% and the “inhibition of the capsaicin induced AP response” value is 86.5±8.4%. Moreover, in series [2] (2 μM), the “inhibition of AP response to Capsaicin activation” value was 97.9±2.1% and the “inhibition of AP response to current activation” value is given as 77.7±5.6%. Besides, the “capsaicin induced tetanic action potential burst” value in series [10] is listed as “alleviates”. In addition, the “hERG, percent in parentheses beside the IC50 bound” value on hERG [9] is on record as “(0%)”.

As for `CC(C)c1cc(Cl)cc(Cl)c1C(=O)c1ccc(F)c(CC(=O)NCC2(O)CCC2)c1` [Compound 569], the “HLM Clint” value in series [1] came out at 120 µL/min/mg. In addition, the LogD in series [5] is 4.47. In addition, the “Kinetic Sol.” value in series [6] amounted to 27.

On to `CC(C)c1cc(Cl)cc(Cl)c1C(=O)c1ccc(F)c(CC(=O)NCC2(O)CC2)c1` [Compound 573], for which, in [1], the “HLM Clint” value stood at 441 µL/min/mg. Besides, the LogD in series [5] is reported as 4.34. Also, the “Kinetic Sol.” value in series [6] is given as 24.

`O=C(Cc1cncc(-n2cc(Cl)c3cc(Cl)cc(Cl)c32)c1)NCCO` [Compound 649]: the “HLM Clint” value in series [1] came to 27.3 µL/min/mg. Further, in series [5], the pH-dependent lipophilicity (LogD) came to 4.19. In addition, the “Kinetic Sol.” value in [6] turned out to be 10.

As to `O=C(Cc1cncc(-n2cc(Cl)c3cc(Cl)cc(Cl)c32)c1)N[C@@H]1COC[C@H]1O` [Compound 661], the “HLM Clint” value in series [1] was 72 µL/min/mg. Further, on hERG [9], the “hERG, percent in parentheses beside the IC50 bound” value is reported as “(0%)”. The LogD in series [5] came out at 3.55. Besides, the “Kinetic Sol.” value in series [6] turned out to be 40.

For `O=C(Cc1cncc(-n2cc(Cl)c3cc(Cl)cc(Cl)c32)c1)N[C@H]1COC[C@@H]1O` [Compound 663], the “HLM Clint” value in [1] is 53.6 µL/min/mg. The LogD in series [5] was determined as 3.52. Besides, in series [6], the “Kinetic Sol.” value is reported as 26.

Turning to `CCOC(=O)Nc1ccc(NCc2ccc(F)cc2)cc1N` [Retigabine, N-(2-amino-4-(4-fluorobenzylamino)-phenyl)carbamic acid ethyl ester], in the series with Kv7.3/5, Kv7.4, the IC50 is 1.5 to 5 µM.

The record behind these values is patent US20240366536A1, “MODULATORS OF A POTASSIUM CHANNEL AND OF TRPV1 CHANNEL AND USES THEREOF” (Bsense Bio Therapeutics Ltd., priority 2022, published 2024).
